O=C1CN=C(c2ccccc2Cl)c2cc([N+](=O)[O-])ccc2N1
solubility (mole fraction)
Conditions | 298.2 K | 303.2 K | 308.2 K | 313.2 K | 318.2 K
in NMP | 0.0132 | 0.0142 | 0.0187 | 0.0207 | 0.0222
in ethanol | 0.000348 | 0.000409 | 0.000533 | 0.00058 | 0.000652
in propylene glycol | 0.000641 | 0.00104 | 0.00108 | 0.00116 | 0.00138
in water | 1.9e-07 | 2.4e-07 | 2.6e-07 | 2.9e-07 | 3.2e-07

Conditions | solubility (mole fraction)
in PEG-200, 298.2 K | 0.01
in PEG-200, 303.2 K | 0.01
in PEG-200, 308.2 K | 0.0134
in PEG-200, 313.2 K | 0.0168
in PEG-200, 318.2 K | 0.0239
